Experimental data: patent publication US7615380B2, “Methods for modulating an immune response by modulating KRC activity” (President and Fellows of Harvard College, priority 2001, dated 2009)

What was measured:
NFκB = NFκB luciferase reporter transfection assay in 293T cells; format: cell-based, human
Method: FIGS. 2(A)-2(C) depicts KRC preventing TRAF-dependent NFkB activation. Inhibition of TRAF2 (FIG. 2(A)), TRAF5 (FIG. 2(B)) and TRAF6 (FIG. 2(C)) mediated activation of NFkB by ectopically expressed KRC. 293 T cells (3×10^5 ) were transfected with 25 ng of NFkB luciferase reporter plasmid, 50 ng of CMVβGal and 1 μg of each indicated plasmid and 24 hours post transfection cells were harvested. Data from at least five experiments normalized for β galactosidase activity are shown. Vec refers to the empty MYC vector without the addition of TRAFs.
293 T cells (3×10^5 ) were transfected with 25 ng of NFκB luciferase reporter plasmid, 50 ng of CMVβGal and 1 μg of each indicated plasmid and 24 hours post transfection cells were stimulated for 4 hours with 10 ng/ml of TNFα. (A) KRC and KRC tr (B) dominant negative and antisense KRC (C) antisense KRC in the presence of exogenous TRAF2. Data from at least five experiments normalized for β galactosidase activity are shown.
HEK293 cells ([…] per well) were seeded in 6 well plates, and 12 h later cells were transfected with EFECTENE™ (Qiagen) with 25 ng of a 2XNFκB-luciferase (Luc) reporter gene plasmid and 0.5 μg of the indicated TRAF and KRC expression vectors. Total amounts of transfected DNA were kept constant by supplementing with control empty expression vector plasmids as needed. Cell extracts were prepared 24 h after transfection, and reporter gene activity was determined via the luciferase assay system (PROMEGA). PRSV-βGal vector (50 ng) was used to normalize for transfection efficiency by measuring β galactosidase activity using the Galacton-PLUS substrate system (TROPIX, Inc.). Whenever indicated, the cells were treated for 4 hours with TNFα or IL-1 (10 ng/ml). To generate stable transfectants, EFECTENE™ mediated transfection of the RAW cell line was performed and clones were selected and maintained in complete medium supplemented with G418 (2 mg/ml).

c-Jun/c-Fos AP-1 = experiment: c-Jun/c-Fos protein stability time course with cycloheximide; format: cell-based
Method: The above experiments mapped the interaction site of KRC with c-Jun to aa 204-1055 of KRC. The interaction of full-length KRC with c-Jun was tested. […] Time course experiments were performed in which overexpressed sense KRC or an antisense KRC previously shown to block production of endogenous KRC protein were coimmunoprecipitated with overexpressed c-Jun and c-Fos. […] The same set of experiments were performed using c-Fos, a very short-lived cellular protein. […] The ability of KRC to promote the degradation of other fos family members Fra1, Fra2 and Fos B was also tested (FIG. 23(D)). […] The protein stability of V-fos was not affected by altering levels of KRC by sense or antisense overexpression.

TRAF2, TRAF5, TRAF6 = experiment: Coimmunoprecipitation with TRAF family members in 293T cells; format: binding
Excerpt: FIGS. 1(A)-1(E) show the interaction of amino acid residues 204 to 1055 of KRC (“KRC tr”) (amino acids 204-1055 of SEQ ID NO:2) with TRAF family members. […] FIG. 1(B) upper panel depicts the interaction of KRC tr with TRAFs in mammalian cells. 293 T cells were cotransfected with the indicated FLAG-TRAFs and MYC-tagged KRC tr, and immunoprecipitated with anti-MYC antibody, followed by blotting with anti-FLAG antibody. FIG. 1(B) lower panel depicts the direct western blot of overexpressed TRAFS and KRC tr with anti-FLAG or anti-MYC. FIG. 1(C) depicts the differential interaction of KRC tr with TRAF proteins. The coimmunoprecipitation experiments were performed in the presence of 300 mM NaCl instead of 137 mM NaCl. FIG. 1(D) depicts KRC tr interacting with TRAF2 lacking the Ring finger domain. 293 T cells were transfected with MYC-KRC tr and with FLAG tagged TRAF2 or with FLAG-tagged TRAF2 (87-501). FIG. 1(E) depicts the interaction of KRC tr with endogenous TRAF2 but not with endogenous TRAF5 or TRAF6. 293T were transfected with an expression vector encoding an MYC-tagged KRC tr, or empty plasmid. Lysates from 293T cells were incubated with anti-MYC antibodies. Coimmunoprecipitated endogenous TRAF was detected by western blotting with specific anti-TRAF antibodies.
Effectene™ mediated transfections into 293T cells were performed. […]

In the case of “KRC: full-length KRC zinc finger protein (SEQ ID NO:2) overexpressed from an expression vector”, the “NFκB activation induced by TRAF5 and TRAF6” value (NFκB; 293T cells) is reported as “substantially but not completely affected”, the NFkB-dependent transactivation (NFκB; 293T cells, absence of exogenous TRAFs) is reported as “blocked NFkB-dependent transactivation” and the “TRAF2-induced NFκB activation” value (NFκB; 293T cells, exogenous TRAF2) is reported as “blocked TRAF2-induced NFκB activation”. The “TNFα-induced NFκB activation” value (NFκB; 293 cells, 10 ng/ml TNFα 4 hours) was “strongly inhibited TNFα-induced NFκB activation”, the c-Jun degradation (c-Jun/c-Fos AP-1; low dose cycloheximide) was “rapid degradation of c-Jun” and the “stability of the c-Fos protein” value (c-Jun/c-Fos AP-1; presence of cycloheximide) was “compromised”. For the same substance, the “interaction with TRAF family members” value (TRAF2, TRAF5, TRAF6) was “higher affinity with TRAF2 than with TRAF5 and TRAF6”.
